Patent US9315492B2, “Heterocyclic group contained amino-methanol derivative, and salt, synthetic method and use thereof” (BEIJING FORELAND BIOPHARMA CO., LTD., priority 2012, dated 2016)

Assays:
[1] = biological target: T1, S1P1 (Homo sapiens (Human), UniProt P21453); assay: S1P1 GTPγS binding assay; assay type: biochemical; conditions: [35S]-GTPγS, membranes with high-expressed S1P1 (CHO-S1P1)
Experimental: 1. S1P1GTPγS Binding Assay
2) T-75 cell culture plate; 150 mm cell culture dish
3) DMEM cell culture fluid; 10% (v/v) fetal bovine serum; 100 U/ml penicillin-100 μg/ml streptomycin; 2 mM […], 1 mg/ml G-418
4) Cell Lysis Buffer: HEPES 20 mM (pH 7.4), EDTA 10 mM
5) Stock solution: HEPES 20 mM, EDTA 0.1 mM
6) Binding Buffer; HEPES 20 mM (pH 7.4), NaCl 100 mM, MgCl2 5 mM, GDP 1 μM, BSA 0.1% (w/v), DMSO 2.5% (v/v),
7) Washing solution: NaH2PO4 10 mM (pH 7.4)
The test compounds were dissolved in DMSO and prepared as a concentration of 20 mM.
The concentrations of the compounds were detected ranging from 0.3 nM to 20 μM.
Control group: […] SIP and SEW2871 were used as positive control and were purchased from Tocris company, and the binding buffet was as negative control.
Test method: wetting membranes by saponin solution, and preparing [^35S]-GTPγS in binding solution (4×). The test compound was prepared as 4× of the final concentration which was then performed serial 3× dilution in 100% DMSO. Membranes with high-expressed S1P1 were collected in 5 ml binding buffer, and 50 μL was added to 96-well (containing 5 μg membrane protein with high-expressed S1P1). 25 μL, test compound was added in each well. The compound was incubated with the membranes for 30 min at room temperature, then 25 μL [^35S]-GTPγS was added, and the experiment was initiated. The 96-well detection plate was incubated for 1 hour at room temperature, filtered by filtermat B, and washed with washing solution for three times. After the plate was dried for 1 h at 50° C., 8 ml scintillator solution was added and counted using scintillation counter.
Result Analysis and Determination of 50% Inhibitory Concentration (IC50):
The IC50 value was calculated by using (Prism 4) software, and 50% inhibitory concentrations were obtained.

[2] = biological target: T1, S1P1; assay: S1P1 β-arrestin assay (PathHunter CHO-K1 EDG1); assay type: cell-based; conditions: CHO-EDG-1 cells
Experimental: 2.1 Experimental Materials: Path hunter express CHO-K1 EDG1 β-arrestin GPCR Assay was purchased from DiscoveRx, containing CHO-EDG-1 cells, buffers, substrate-1, substrate-2, cell culture fluid, 96-well cell culture plate.
1) The test compounds were dissolved in DMSO and prepared as a concentration of 20 mM.
2) The concentrations of the test compounds were detected ranging from […] to 20 μM.
4) Assay procedures: OCC culture solution was preheated in water tank at 37° C. Cells were taken out from liquor nitrogen tank, left on the dry-ice, and dissolved in water tank at 37° C. 0.5 ml OCC culture solution was added and blended slowly. The cells were diluted in 11.5 mL OCC culture solution, and 100 μL cell suspension (containing 8333 cells) was added to each well of the 96-well plate. The 96-well plate was incubated for 8 hours under 5% CO2 at 37° C., and 10 μL test compound dissolved in DMSO was added in; 10 μL DMSO was used as negative control. After the plate was incubated for 90 min at 37° C., 55 μL detection solution was added to each well. Then the results were read out by EnVision after the cell plate was incubated for 90 min at room temperature.
The EC50 Value was Calculated by Using Prism 4 Software

[3] = system: peripheral blood lymphocyte; assay: Effects on peripheral blood lymphocyte in mice; assay type: in vivo, Balb/c mice; conditions: intragastric
Experimental: 3. Effects of the Compounds in Example-21 and Example-22 on Peripheral Blood Lymphocyte in Mice
3.1 Experimental Materials:
1) 15% EDTA, PBS, EP tubes, 15 ml centrifuge tube, capillary tube, pipette tip were all purchased from Shanghai biological technology co., Ltd. Hemocyte analysis reagents were purchased from Shanghai Sysmex Company.
2) 35 Balb/c mice (female, 20-22 g), supplied by laboratory animal center of Jilin University.
3) Automated Hematology Analyzer (pocH-100 iV Diff) was purchased from Sysmex Company, Kobe, Japan.
1) The stock solutions of the compounds obtained in Example-21 and Example-22 were prepared with normal saline, and the concentrations are 2 mg/ml and 20 mg/ml, respectively.
2) The mice were divided into […], i.e., control group, low-dose experimental group, and high-dose experimental group. They were weighed and labeled well.
3) Before administration, supraorbital venous blood was collected with 20 μl/mouse which was added to anticoagulant tube containing EDTA, and nosed thoroughly. The numbers of lymphocytes were analyzed by pocH-100.
4) The control group was given normal saline: low-dose experimental groups were given the compounds obtained in Example-21 and Example-22 (5 mg/kg/d), high-dose experimental groups were given the compounds obtained in Example-21 and Example-22 (30 mg/kg/d), with liquid amount of 500 μl/mouse, by intragastric administration. Administration was performed for continuous four days, once a day. After 3.5 hours of the first and fourth administration, blood was collected respectively, and changes in the numbers of lymphocytes were analyzed by pocH-100.

[4] = system: autoimmune multiple sclerosis (PLP139-151 immunized mice); assay: Experimental autoimmune multiple sclerosis; assay type: in vivo; conditions: SJL/J mice, 5 and 30 mg/kg/d intragastric, 30 days
[5] = system: experimental rheumatoid arthritis (bovine collagen type II immunized mice); assay: Experimental rheumatoid arthritis; assay type: in vivo; conditions: DBA/1JLacJ mice, 5 and 30 mg/kg/d intragastric, 30 days
[6] = system: peripheral blood lymphocyte; conditions: general statement for FTY720; cited from earlier work

T1 sequence (P21453 whole entry): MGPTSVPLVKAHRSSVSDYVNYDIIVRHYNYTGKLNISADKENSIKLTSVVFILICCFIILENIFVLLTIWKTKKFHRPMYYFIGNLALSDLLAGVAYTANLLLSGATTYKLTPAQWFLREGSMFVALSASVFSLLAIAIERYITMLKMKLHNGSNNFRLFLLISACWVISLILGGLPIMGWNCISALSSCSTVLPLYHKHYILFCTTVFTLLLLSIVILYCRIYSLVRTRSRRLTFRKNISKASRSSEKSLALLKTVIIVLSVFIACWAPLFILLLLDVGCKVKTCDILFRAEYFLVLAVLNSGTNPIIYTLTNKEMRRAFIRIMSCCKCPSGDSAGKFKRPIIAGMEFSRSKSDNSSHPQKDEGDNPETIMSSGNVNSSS

For “2-(7-amino-5,6,7,8-tetrahydro-7-naphthalenemethanol)-5-(3-methyl-4-isopropoxy)-1,3,4-oxdiazole [Example 22]”, the IC50 [1] was 3 nM, the EC50 [2] was 8 nM and the toxicity ([3]; dose up to 30 mg/kg/d, four days) was “no toxicity effects”. The “behavior and weight of mice, pre- versus post-administration” value ([3]; four days) was “no differences”, the “numbers of peripheral blood lymphocyte reduced compared to pre-administration” value ([3]; once a day for continuous four days) was 78% and the “effect on induction and development of autoimmune multiple sclerosis” value [4] was “obviously inhibiting”. The “effect on induction and development of autoimmune multiple sclerosis” value ([4]; listed as Example-22) was “remarkable inhibitory effects”, the “effect on induction and development of experimental rheumatoid arthritis” value [5] was “obviously inhibiting” and the “effect on induction and development of experimental rheumatoid arthritis” value ([5]; listed as Example-22) was “remarkable inhibitory effects”.
For `CCCCCCCCc1ccc(CCC(N)(CO)CO)cc1` [FTY720], the “number of peripheral blood lymphocytes decreased” value [6] is listed as 70-80%.
